Test results from US9579319B2 (Redx Pharma PLC, priority 2013, dated 2017).

system: Hedgehog signalling pathway; assay: Gli-reporter NIH3T3 luciferase assay (Hedgehog pathway inhibition); type: cell-based; conditions: NIH3T3; Gli-reporter NIH-3T3 cells, recombinant mouse sonic hedgehog, 24 hours, luminescence; read-out: Gli Luc nM (IC50)
Procedure, shortened: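 Mouse NIH3T3 cells with Gli-responsive luciferase reporter, pre-treated 1 h with compound (top final concentration 1 μM, 0.1% DMSO) in 0.5% calf serum medium. Then stimulated with recombinant mouse sonic hedgehog for 24 h at 37° C. Luminescence read-out (OneGLO), triplicates; IC50 reported.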

IC50 [nM]	Compound
5.12	Cc1c(-c2ccnn2C)nnc(N2CCC(N(C)C(=O)Nc3ccc(F)cc3C(F)(F)F)CC2)c1C [Example 151, 1-[1-[4,5-dimethyl-6-(2-methylpyrazol-3-yl)pyridazin-3-yl]-4-piperidyl]-3-[4-fluoro-2-(trifluoromethyl)phenyl]-1-methyl-urea]

same assay, conditions: NIH3T3; Gli-reporter NIH-3T3 cells, recombinant mouse sonic hedgehog, 24 hours, luminescence; read-out: Gli luc IC50

Compound	IC50 [nM]
CN(C(=O)Nc1ccc(F)cc1F)C1CCN(c2nnc(-c3ccnn3C)c3cccnc23)CC1 [Example 136, 3-(2,4-difluorophenyl)-1-methyl-1-[1-[5-(2-methylpyrazol-3-yl)pyrido[2,3-d]pyridazin-8-yl]-4-piperidyl]urea]	10 to 200
CN(C(=O)Nc1ccc(F)cc1C(F)(F)F)C1CCN(c2nnc(-c3ccnn3C)c3cccnc23)CC1 [Example 137, 3-[4-fluoro-2-(trifluoromethyl)phenyl]-1-methyl-1-[1-[5-(2-methylpyrazol-3-yl)pyrido[2,3-d]pyridazin-8-yl]-4-piperidyl]urea]	< 10
Cn1nccc1-c1nnc(N2CCC(NC(=O)Nc3ccc(F)cc3F)CC2)c2c1CCC2 [Example 138, 1-(2,4-difluorophenyl)-3-[1-[1-(2-methylpyrazol-3-yl)-6,7-dihydro-5H-cyclopenta[d]pyridazin-4-yl]-4-piperidyl]urea]	10 to 200
Cn1nccc1-c1nnc(N2CCC(NS(=O)(=O)c3ccc(F)cc3F)CC2)c2c1CCC2 [Example 141, 2,4-difluoro-N-[1-[1-(2-methylpyrazol-3-yl)-6,7-dihydro-5H-cyclopenta[d]pyridazin-4-yl]-4-piperidyl]benzenesulfonamide]	10 to 200
CN(Cc1ncccc1C(F)(F)F)C1CCN(c2nnc(-c3ccnn3C)c3ccccc23)CC1 [Example 147, N-methyl-1-[4-(2-methylpyrazol-3-yl)phthalazin-1-yl]-N-[[3-(trifluoromethyl)-2-pyridyl]methyl]piperidin-4-amine]	10 to 200
Cn1nccc1-c1nnc(N2CCC(NCc3cccc(C#N)c3)CC2)c2c1CCC2 [Example 149, 3-[[[1-[1-(2-methylpyrazol-3-yl)-6,7-dihydro-5H-cyclopenta[d]pyridazin-4-yl]-4-piperidyl]amino]methyl]benzonitrile]	> 200
Cc1c(-c2ccnn2C)nnc(N2CCC(N(C)C(=O)Nc3ccc(F)cc3C(F)(F)F)CC2)c1C [Example 151, 1-[1-[4,5-dimethyl-6-(2-methylpyrazol-3-yl)pyridazin-3-yl]-4-piperidyl]-3-[4-fluoro-2-(trifluoromethyl)phenyl]-1-methyl-urea]	< 10
Cc1c(-c2ccnn2C)nnc(N2CCC(N(C)C(=O)NC(C)(C)C)CC2)c1C [Example 152, 3-tert-butyl-1-[1-[4,5-dimethyl-6-(2-methylpyrazol-3-yl)pyridazin-3-yl]-4-piperidyl]-1-methyl-urea]	> 200
CN(Cc1cnccc1C(F)(F)F)C1CCN(c2nnc(-c3ccnn3C)c3ccccc23)CC1 [Example 154, N-methyl-1-[4-(2-methylpyrazol-3-yl)phthalazin-1-yl]-N-[[4-(trifluoromethyl)-3-pyridyl]methyl]piperidin-4-amine]	< 10
Cn1nccc1-c1nnc(N2CCC(NS(=O)(=O)c3ccc(F)cc3C(F)(F)F)CC2)c2c1CCC2 [Example 159, 4-fluoro-N-[1-[1-(2-methylpyrazol-3-yl)-6,7-dihydro-5H-cyclopenta[d]pyridazin-4-yl]-4-piperidyl]-2-(trifluoromethyl)benzenesulfonamide]	< 10
Cn1nccc1-c1nnc(N2CCC(NC(=O)NC(C)(C)C)CC2)c2c1CCC2 [Example 161, 1-tert-butyl-3-[1-[1-(2-methylpyrazol-3-yl)-6,7-dihydro-5H-cyclopenta[d]pyridazin-4-yl]-4-piperidyl]urea]	10 to 200
CN(Cc1ccccc1OC(F)(F)F)C1CCN(c2nnc(-c3ccnn3C)c3ccccc23)CC1 [Example 162, N-methyl-1-[4-(2-methylpyrazol-3-yl)phthalazin-1-yl]-N-[[2-(trifluoromethoxy)phenyl]methyl]piperidin-4-amine]	< 10
COC(=O)c1ccc(CNC2CCN(c3nnc(-c4ccnn4C)c4ccccc34)CC2)nc1 [Example 166, methyl 6-[[[1-[4-(2-methylpyrazol-3-yl)phthalazin-1-yl]-4-piperidyl]amino]methyl]pyridine-3-carboxylate]	> 200
Cn1nccc1-c1nnc(N2CCC(NC(=O)Nc3ccc(OC(F)(F)F)cc3)CC2)c2ccccc12 [Example 167, 1-[1-[4-(2-methylpyrazol-3-yl)phthalazin-1-yl]-4-piperidyl]-3-[4-(trifluoromethoxy)phenyl]urea]	< 10
CN(Cc1cccc(C#N)c1)C1CCN(c2nnc(-c3ccnn3C)c3ccccc23)CC1 [Example 168, 3-[[methyl-[1-[4-(2-methylpyrazol-3-yl)phthalazin-1-yl]-4-piperidyl]amino]methyl]benzonitrile]	10 to 200
CN(C(=O)Nc1ccc(F)cc1F)C1CCN(c2nnc(-c3ccnn3C)c3ccccc23)CC1 [Example 169, 3-(2,4-difluorophenyl)-1-methyl-1-[1-[4-(2-methylpyrazol-3-yl)phthalazin-1-yl]-4-piperidyl]urea]	< 10

Next, values leading:

IC50 [nM]	Compound
10 to 200	CN(Cc1ccc(F)cc1C(F)(F)F)C1CCN(c2nnc(-c3ccnn3C)c3cccnc23)CC1 [Example 135, N-[[4-fluoro-2-(trifluoromethyl)phenyl]methyl]-N-methyl-1-[5-(2-methylpyrazol-3-yl)pyrido[2,3-d]pyridazin-8-yl]piperidin-4-amine]
10 to 200	CN(Cc1ccc(F)cc1C(F)(F)F)CC1CCN(c2nnc(-c3ccnn3C)c3ccccc23)C1 (stereo not shown) [Example 139, 1-[4-fluoro-2-(trifluoromethyl)phenyl]-N-methyl-N-[[1-[4-(2-methylpyrazol-3-yl)phthalazin-1-yl]pyrrolidin-3-yl]methyl]methanamine]
10 to 200	Cn1nccc1-c1nnc(N2CCC(CNCc3ccc(F)cc3C(F)(F)F)C2)c2ccccc12 (stereo not shown) [Example 140, 1-[4-fluoro-2-(trifluoromethyl)phenyl]-N-[[1-[4-(2-methylpyrazol-3-yl)phthalazin-1-yl]pyrrolidin-3-yl]methyl]methanamine]
10 to 200	Cn1nccc1-c1nnc(N2CCC(Nc3ccc(F)cc3C(F)(F)F)CC2)c2c1CCC2 [Example 142, N-[4-fluoro-2-(trifluoromethyl)phenyl]-1-[1-(2-methylpyrazol-3-yl)-6,7-dihydro-5H-cyclopenta[d]pyridazin-4-yl]piperidin-4-amine]
10 to 200	CC(NC1CCN(c2nnc(-c3ccnn3C)c3ccccc23)CC1)c1ccc(F)cc1C(F)(F)F (stereo not shown) [Example 143, N-[1-[4-fluoro-2-(trifluoromethyl)phenyl]ethyl]-1-[4-(2-methylpyrazol-3-yl)phthalazin-1-yl]piperidin-4-amine]
> 200	CN(Cc1ccc(F)cc1C(F)(F)F)C1CCN(c2nnc(N3CCOCC3)c3ccccc23)CC1 [Example 144, N-[[4-fluoro-2-(trifluoromethyl)phenyl]methyl]-N-methyl-1-(4-morpholinophthalazin-1-yl)piperidin-4-amine]
> 200	Fc1ccc(CNC2CCN(c3nnc(N4CCOCC4)c4ccccc34)CC2)c(C(F)(F)F)c1 [Example 145, N-[[4-fluoro-2-(trifluoromethyl)phenyl]methyl]-1-(4-morpholinophthalazin-1-yl)piperidin-4-amine]
> 200	Cn1nccc1-c1nnc(N2CCC(NCc3ccc(F)cc3C(F)(F)F)CC2)c2ncccc12 [Example 146, N-[[4-fluoro-2-(trifluoromethyl)phenyl]methyl]-1-[5-(2-methylpyrazol-3-yl)pyrido[2,3-d]pyridazin-8-yl]piperidin-4-amine]
10 to 200	Cn1nccc1-c1nnc(N2CCC(NCc3ccc(F)cc3C(F)(F)F)CC2)c2c1CCC2 [Example 148, N-[[4-fluoro-2-(trifluoromethyl)phenyl]methyl]-1-[1-(2-methylpyrazol-3-yl)-6,7-dihydro-5H-cyclopenta[d]pyridazin-4-yl]piperidin-4-amine]
10 to 200	Cn1nccc1-c1nnc(N2CCC(NCc3ncccc3C(F)(F)F)CC2)c2ccccc12 [Example 150, 1-[4-(2-methylpyrazol-3-yl)phthalazin-1-yl]-N-[[3-(trifluoromethyl)-2-pyridyl]methyl]piperidin-4-amine]
> 200	CN(Cc1ccc(F)cc1C(F)(F)F)C1CCN(c2nnc(-c3cnccn3)c3ccccc23)CC1 [Example 153, N-[[4-fluoro-2-(trifluoromethyl)phenyl]methyl]-N-methyl-1-(4-pyrazin-2-ylphthalazin-1-yl)piperidin-4-amine]
< 10	Cn1nccc1-c1nnc(N2CCC(NCc3cccnc3C(F)(F)F)CC2)c2ccccc12 [Example 155, 1-[4-(2-methylpyrazol-3-yl)phthalazin-1-yl]-N-[[2-(trifluoromethyl)-3-pyridyl]methyl]piperidin-4-amine]
< 10	CN(Cc1cccnc1C(F)(F)F)C1CCN(c2nnc(-c3ccnn3C)c3ccccc23)CC1 [Example 157, N-methyl-1-[4-(2-methylpyrazol-3-yl)phthalazin-1-yl]-N-[[2-(trifluoromethyl)-3-pyridyl]methyl]piperidin-4-amine]
10 to 200	CN(Cc1ccc(F)cc1Cl)C1CCN(c2nnc(-c3ccnn3C)c3ccccc23)CC1 [Example 158, N-[(2-chloro-4-fluoro-phenyl)methyl]-N-methyl-1-[4-(2-methylpyrazol-3-yl)phthalazin-1-yl]piperidin-4-amine]
< 10	CN(Cc1ccc(F)nc1C(F)(F)F)C1CCN(c2nnc(-c3ccnn3C)c3ccccc23)CC1 [Example 160, N-[[6-fluoro-2-(trifluoromethyl)-3-pyridyl]methyl]-N-methyl-1-[4-(2-methylpyrazol-3-yl)phthalazin-1-yl]piperidin-4-amine]
10 to 200	Cn1nccc1-c1nnc(N2CCC(NCc3cccc(F)c3F)CC2)c2ccccc12 [Example 163, N-[(2,3-difluorophenyl)methyl]-1-[4-(2-methylpyrazol-3-yl)phthalazin-1-yl]piperidin-4-amine]
10 to 200	Cn1nccc1-c1nnc(N2CCC(NCc3ccc(F)nc3C(F)(F)F)CC2)c2ccccc12 [Example 165, N-[[6-fluoro-2-(trifluoromethyl)-3-pyridyl]methyl]-1-[4-(2-methylpyrazol-3-yl)phthalazin-1-yl]piperidin-4-amine]
